# Assay results published in US4743584A, “C-terminal amide cyclic renin inhibitors containing peptide isosteres” (Merck & Co., Inc., priority 1986, dated 1988).
# Positions of bridges follow the written chain, without caps; N, C: chain ends. Residues, ends and D or L forms follow the SMILES beside them. *: point of attachment. Boc = CC(C)(C)OC(=O)*
# What was measured:
# human kidney renin = target: T1, human kidney renin (Homo sapiens, UniProt P00797); assay: Human renin inhibition; assay type: biochemical; conditions: purified human kidney renin; read-out: KI (dissociation constant of the inhibited enzyme-inhibitor complex)
# T1 construct: human kidney renin purified as described in Bangham; from tissue; host or cells: human kidney
# T1 sequence (P00797 67-406): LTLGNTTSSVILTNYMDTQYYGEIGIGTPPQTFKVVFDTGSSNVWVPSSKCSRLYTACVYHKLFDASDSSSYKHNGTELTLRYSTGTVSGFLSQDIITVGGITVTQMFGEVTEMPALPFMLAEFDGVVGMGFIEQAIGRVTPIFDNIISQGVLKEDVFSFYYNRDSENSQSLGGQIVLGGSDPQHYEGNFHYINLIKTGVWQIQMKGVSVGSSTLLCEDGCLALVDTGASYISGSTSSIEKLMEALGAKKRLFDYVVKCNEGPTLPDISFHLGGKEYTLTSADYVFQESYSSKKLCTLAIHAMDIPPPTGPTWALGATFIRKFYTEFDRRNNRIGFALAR
# Procedure: An assay was carried out in order to determine the inhibitory potency of the peptides of the present invention. The assay measured the inhibition of human kidney renin purified as described in Bangham, D. R., Robertson, I., Robinson, J. I. S., Robinson, C. J., and Tree, M., Clinical Science and Molecular Medicine, 48 (Supp. 2): 136s-159s (1975), and further purified by affinity chromatography on pepstatin-aminohexyl-Sepharase as described in Poe, M., Wu., J. K., Florance, J. R., Radkey, J. A., Bennett, C. D., and Hoagsteen, K., J. Biol. Chem. (1982, in press). The assay was also in accordance with Poe et al. cited above. Results are expressed as KI values, which refer to the dissociation constant of the inhibited enzyme-inhibitor complex. This KI value was obtained as described above. […]
# hog kidney renin = assay: Hog renin inhibition; assay type: biochemical; conditions: pH 7.3, read-out: I50 (concentration of peptide inhibitor necessary to produce 50% inhibition of renin activity)
# Procedure: An assay was carried out in order to determine the inhibitory potency of the peptides of the present invention. The assay measured the inhibition of hog kidney renin, and was in accordance with the procedure described in Rich et al., J. Med. Chem. 23:27, 1980, except that a pH of 7.3 was used. The results of the assay, illustrated in the table below, are expressed as I50 values, which refers to the concentration of peptide inhibitor necessary to produce 50% inhibition of renin activity. This I50 value is obtained typically by plotting data from four inhibitor concentrations.
# nephrectomized rats = conditions: after the injection of hog renin into nephrectomized rats; Gross et al. 1971; cited from earlier work
Ki (human kidney renin) [µM],Compound,also measured
33,CC(C)[C@@H]1NC(=O)[C@H](Cc2ccccc2)NC(=O)[C@H](Cc2ccccc2)NC(=O)[C@@H](NC(=O)[C@H](Cc2ccccc2)NC(=O)[C@@H]2CCCN2C(=O)[C@H](Cc2c[nH]cn2)NC(=O)[C@@H]2CCCN2)CCCCNC(=O)[C@H](Cc2ccccc2)NC1=O (H-PHPFKFFVF; lactam 5-C),
,CC(C)C[C@@H]1NC(=O)[C@@H](NC(=O)[C@H](Cc2ccccc2)NC(=O)[C@@H]2CCCN2C(=O)[C@H](Cc2c[nH]cn2)NC(=O)[C@@H]2CCCN2C(=O)OC(C)(C)C)CCCCNC(=O)[C@H](Cc2ccccc2)NC(=O)[C@H](C(C)C)NC(=O)[C@H](CC(C)C)NC1=O [drawing 67] (Boc-PHPFKLLVF; lactam 5-C),IC50 (hog kidney renin): 1000 µM
6.4,CC(C)C[C@@H]1NC(=O)[C@@H](NC(=O)[C@H](Cc2ccccc2)NC(=O)[C@@H]2CCCN2C(=O)[C@H](Cc2c[nH]cn2)NC(=O)[C@@H]2CCCN2C(=O)OC(C)(C)C)CCCCNC(=O)[C@H](Cc2ccccc2)NC(=O)[C@H](C(C)C)NC(=O)[C@H](CC(C)C)NC1=O [drawing 69] (Boc-PHPFKLLVF; lactam 5-C),
,Pepstatin,blood pressure in vivo (nephrectomized rats): reduce blood pressure
